Values of other authors, collected in patent US6676951B1, “Host-guest processes and formulations for delivering bio-affecting compounds” (priority 1999, dated 2004).

Settings: C=O bond external to the ring

With `O=C1O[C@H]([C@@H](O)CO)C(O)=C1O` [ascorbic acid, L-ascorbic acid] as the compound, how does the “pKa of the C=O external to the ring structure” value read?
Its value is 4.5.
